From patent US9067949B2, “Benzofuro[3,2-c] pyridines and related analogs as serotonin sub-type 6 (5-HT6) modulators for the treatment of obesity, metabolic syndrome, cognition and schizophrenia” (Albany Molecular Research, Inc., priority 2011, dated 2015) come the findings set out here.

pKi: −log10 of the molar value.

For data set [1], the target named is human 5-HT6 receptor (Homo sapiens (Human), UniProt P50406). The experiment in a line: 5-HT6 radioligand binding assay (SPA format, [N-methyl-3H]-LSD). As to conditions: human 5-HT6 receptor membranes, 10 nM [N-methyl-3H]-LSD; Ki by Cheng-Prusoff; read-out: human 5HT6 Ki. An outline of the steps: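 Human 5-HT6 receptor membranes were incubated overnight at room temperature with 10 nM [N-methyl-3H]-LSD and competitor in 50 mM Tris-HCl pH 7.5, 5 mM MgCl2, 1 mM EDTA, 4% DMSO, read by SPA. Nonspecific binding was defined with 100 μM 5-HT. IC50 came from ten-point duplicate curves; Ki via Cheng-Prusoff.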
Sequence of human 5-HT6 receptor (P50406 whole entry): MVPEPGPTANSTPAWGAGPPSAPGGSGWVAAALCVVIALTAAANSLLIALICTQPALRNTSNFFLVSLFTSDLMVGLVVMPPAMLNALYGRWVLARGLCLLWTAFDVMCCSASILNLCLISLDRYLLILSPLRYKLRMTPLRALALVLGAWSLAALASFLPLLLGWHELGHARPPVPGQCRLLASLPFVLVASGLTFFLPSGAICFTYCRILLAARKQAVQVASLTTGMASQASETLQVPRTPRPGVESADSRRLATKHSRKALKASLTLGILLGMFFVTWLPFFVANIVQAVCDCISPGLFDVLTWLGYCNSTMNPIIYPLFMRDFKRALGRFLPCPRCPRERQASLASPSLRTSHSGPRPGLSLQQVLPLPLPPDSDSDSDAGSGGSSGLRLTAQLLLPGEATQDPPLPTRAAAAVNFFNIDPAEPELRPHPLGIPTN

One may read the melting point as the temperature, or range, at which the solid turns liquid. The term pKi denotes −log10 of the Ki, conventionally taken in molar units. `Cc1ccc(S(=O)(=O)c2ccc3oc4c(c3c2)CNCC4)cc1.Cl` [Example 35, 8-(4-Methylphenylsulfonyl)-1,2,3,4-tetrahydrobenzofuro[3,2-c]pyridine hydrochloride] returned a melting point of 265 to 270 °C. In data set [1], the pKi was 7.42.
`Cl.Nc1ccc(S(=O)(=O)c2ccc3oc4c(c3c2)CNCC4)cc1` [Example 36, 8-(4-Aminophenylsulfonyl)-1,2,3,4-tetrahydrobenzofuro[3,2-c]pyridine hydrochloride]: the melting point was 305 to 314 °C (dec.). Further, the pKi in data set [1] is 7.40.
On to `Cl.O=S(=O)(c1cc(F)cc(F)c1)c1ccc2oc3c(c2c1)CNCC3` [Example 37, 8-(3,5-Difluorophenylsulfonyl)-1,2,3,4-tetrahydrobenzofuro[3,2-c]pyridine hydrochloride], for which the melting point is 275 to 281 °C (dec.). Besides, in data set [1], the negative logarithm of the Ki (pKi) is 6.47.
For `Cl.O=S(=O)(c1cc(Cl)cc(Cl)c1)c1ccc2oc3c(c2c1)CNCC3` [Example 38, 8-(3,5-Dichlorophenylsulfonyl)-1,2,3,4-tetrahydrobenzofuro[3,2-c]pyridine hydrochloride] the same measures were 312 to 315 °C and 7.77.
For `Cl.O=S(=O)(c1ccc2oc3c(c2c1)CNCC3)c1cccc2ccccc12` [Example 39, 8-(1-Naphthylsulfonyl)-1,2,3,4-tetrahydrobenzofuro[3,2-c]pyridine hydrochloride] the same measures were 200 to 202 °C and 8.30.
In turn, `Cl.O=S(=O)(c1ccc2ccccc2c1)c1ccc2oc3c(c2c1)CNCC3` [Example 40, 8-(2-Naphthylsulfonyl)-1,2,3,4-tetrahydrobenzofuro[3,2-c]pyridine hydrochloride] came in with a melting point of 267 to 270 °C. Further, the pKi in data set [1] is 7.68.
The like results for `Cl.O=S(=O)(c1ccc2oc3c(c2c1)CNCC3)n1ccc2ccccc21` [Example 41, 8-(1H-Indol-1-ylsulfonyl)-1,2,3,4-tetrahydrobenzofuro[3,2-c]pyridine hydrochloride] were, in that order, 283 to 286 °C and 9.24.
The like results for `Cl.O=S(=O)(c1ccc2oc3c(c2c1)CNCC3)n1ccc2ccc(F)cc21` [Example 42, 8-(6-fluoro-1H-indol-1-ylsulfonyl)-1,2,3,4-tetrahydrobenzofuro[3,2-c]pyridine hydrochloride] were, in that order, 199 to 203 °C and 8.82.
The like results for `Cc1cn(S(=O)(=O)c2ccc3oc4c(c3c2)CNCC4)c2ccccc12.Cl` [Example 43, 8-(3-Methyl-1H-indol-1-ylsulfonyl)-1,2,3,4-tetrahydrobenzofuro[3,2-c]pyridine hydrochloride] were, in that order, 293 to 296 °C and 9.38.
`Cl.O=S(=O)(c1ccccc1)c1cc(Cl)c2oc3c(c2c1)CNCC3` [Example 44, 6-Chloro-8-(phenylsulfonyl)-1,2,3,4-tetrahydrobenzofuro[3,2-c]pyridine hydrochloride] had a melting point of 290 to 294 °C. Besides, the pKi in data set [1] was 9.26.
The like results for `Cl.O=S(=O)(c1cccc(F)c1)c1cc(Cl)c2oc3c(c2c1)CNCC3` [Example 47, 6-Chloro-8-(3-fluorophenylsulfonyl)-1,2,3,4-tetrahydrobenzofuro[3,2-c]pyridine hydrochloride] were, in that order, 276 to 278 °C and 9.41.
For `Cl.N#Cc1cccc(S(=O)(=O)c2cc(Cl)c3oc4c(c3c2)CNCC4)c1` [Example 48, 6-Chloro-8-(3-cyanophenylsulfonyl)-1,2,3,4-tetrahydrobenzofuro[3,2-c]pyridine hydrochloride] the same measures were 272 to 274 °C and 7.92.
The like results for `Cl.O=S(=O)(c1ccc(Cl)cc1)c1cc(Cl)c2oc3c(c2c1)CNCC3` [Example 49, 6-Chloro-8-(4-chlorophenylsulfonyl)-1,2,3,4-tetrahydrobenzofuro[3,2-c]pyridine hydrochloride] were, in that order, 282 to 284 °C and 8.72.
Take `Cl.Cn1cc(S(=O)(=O)c2cc(Cl)c3oc4c(c3c2)CNCC4)c2ccccc21` [Example 50, 6-Chloro-8-(1-methyl-1H-indol-3-ylsulfonyl)-1,2,3,4-tetrahydrobenzofuro[3,2-c]pyridine]: the melting point was 262 to 264 °C. Further, the pKi in data set [1] is 9.77.
For `Cl.O=S(=O)(c1ccccc1)c1cc(F)c2oc3c(c2c1)CNCC3` [Example 52, 6-Fluoro-8-(phenylsulfonyl)-1,2,3,4-tetrahydrobenzofuro[3,2-c]pyridine hydrochloride] the same measures were 232 to 250 °C and 8.29.
The molecule `COc1cc(S(=O)(=O)c2ccccc2)cc2c3c(oc12)CCNC3.Cl` [Example 54, 6-Methoxy-8-(phenylsulfonyl)-1,2,3,4-tetrahydrobenzofuro[3,2-c]pyridine hydrochloride] displayed a melting point of 197 to 202 °C. In data set [1], the pKi is 9.92.
`Cl.O=S(=O)(c1cccc(C(F)(F)F)c1)c1ccc2oc3c(c2c1)C1CCC(C3)N1` (stereo not shown) [Example 55, 2-(3-Trifluoromethylphenyl)sulfonyl-6,7,8,9,10-pentahydro-7,10-epiminocyclohepta[b]benzofuran hydrochloride]: the melting point was in the range of 296 to 298 °C. The pKi in data set [1] is 7.28.
The like results for `Cl.O=S(=O)(c1cccc(Cl)c1)c1ccc2oc3c(c2c1)C1CCC(C3)N1` (stereo not shown) [Example 56, 2-(3-Chlorophenyl)sulfonyl-6,7,8,9,10-pentahydro-7,10-epiminocyclohepta[b]benzofuran hydrochloride] were, in that order, 285 to 288 °C and 7.51.
Take `Cl.O=S(=O)(c1cccc(F)c1)c1ccc2oc3c(c2c1)C1CCC(C3)N1` (stereo not shown) [Example 57, 2-(3-Fluorophenyl)sulfonyl-6,7,8,9,10-pentahydro-7,10-epiminocyclohepta[b]benzofuran hydrochloride]: the melting point is 200 to 210 °C. Moreover, the negative-log Ki (pKi) in data set [1] was 6.88.
The like results for `Cc1cn(S(=O)(=O)c2ccc3oc4c(c3c2)C2CCC(C4)N2)c2ccccc12.Cl` (stereo not shown) [Example 58, 2-(3-Methyl-1H-indol-1-yl)sulfonyl-6,7,8,9,10-pentahydro-7,10-epiminocyclohepta[b]benzofuran hydrochloride] were, in that order, 195 to 199 °C and 7.80.
The like results for `Cl.O=S(=O)(c1ccc2oc3c(c2c1)C1CCC(C3)N1)n1ccc2ccc(F)cc21` (stereo not shown) [Example 59, 2-(6-Fluoro-1H-indol-1-yl)sulfonyl-6,7,8,9,10-pentahydro-7,10-epiminocyclohepta[b]benzofuran hydrochloride] were, in that order, 184 to 187 °C and 7.77.
In turn, `Cl.O=S(=O)(c1ccccc1)c1ccc2c3c(oc2c1)CCNC3` [Example 60, 7-(Phenylsulfonyl)-1,2,3,4-tetrahydrobenzofuro[3,2-c]pyridine hydrochloride] came in with a melting point of 235 to 238 °C. Besides, the pKi in data set [1] is 8.01.
For `CN1CCc2oc3cc(S(=O)(=O)c4ccccc4)ccc3c2C1.Cl` [Example 61, 2-Methyl-7-(phenylsulfonyl)-1,2,3,4-tetrahydrobenzofuro[3,2-c]pyridine hydrochloride] the same measures were 242 to 245 °C and 7.74.
